Active and inactive are the calls of the source.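 The calls were made as follows: active = cell-killing curve crosses a set limit at a concentration no more than twice the top valid dose; inconclusive = flat curve with a 30 to 70% loss, or a poor fit; inactive = signal rising instead of falling, and the rest.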

We go through 74 compounds from PubChem BioAssay AID720570 (Broad Institute, 2013).

One experiment is described as follows: TC71 Ewing sarcoma cell killing, confirmation, luminescence, cherry-picked samples, retest (AID 720570). The note with it: TC71 Ewing sarcoma viability, CellTiter-Glo ATP, 72 h; at 23.5 µM (top of the series).
Turning to `COC(=O)C[C@@H]1CC[C@@H]2[C@H](COc3ccc(NC(=O)c4cccc(Cl)c4)cc3C(=O)N2C)O1`, the activity change, negative = cytotoxicity is 2.41% (inactive).

The same experiment, now with this note: TC71 Ewing sarcoma viability, CellTiter-Glo ATP, 72 h; at 26 µM (top of the series).
With `O=c1oc2cc(O)ccc2s1`, the activity change, negative = cytotoxicity is -26.8% (inactive).

Consider `Cc1ccsc1C(=O)OCC(=O)c1cc(C)n(C)c1C`, for which the activity change, negative = cytotoxicity was 15.6% (inactive).

For `CNC[C@H](CC1CCCCC1)NC[C@H](CO)NCCc1cccc(C(F)(F)F)c1`, the activity change, negative = cytotoxicity is 3.89% (inactive).

For the compound `C=CCn1c(O)c(N=Nc2ccccc2)c2ccccc21`, the activity change, negative = cytotoxicity was 10.5% (inactive).

Turning to `O=C(O)CN1C(=O)/C(=C\c2ccccc2OCc2ccc(Cl)cc2Cl)SC1=S`, the activity change, negative = cytotoxicity was 10.8% (inactive).

Take `C[C@H](CO)N1C[C@H](C)[C@H](CN(C)CC2CCCCC2)Oc2ccc(NC(=O)Nc3cccc4ccccc34)cc2C1=O`: the activity change, negative = cytotoxicity was 6.42% (inactive).

For the compound `Cc1cccc(/C=N/Nc2ccc3ccccc3n2)c1`, the activity change, negative = cytotoxicity was -16.4% (inactive).

Consider `Cc1cc(C(=O)NNC(=O)c2ccc(S(=O)(=O)N(C)C)cc2)c(C)o1`, for which the activity change, negative = cytotoxicity was 17.6% (inactive).

Regarding `Brc1ccc(CSc2nnc(-c3ccco3)o2)cc1`, the activity change, negative = cytotoxicity is 9.85% (inactive).

Take `CCOc1ccc(NC(=O)C(=O)N/N=C\c2ccc(CNS(=O)(=O)c3ccccc3)o2)cc1`: the activity change, negative = cytotoxicity is 17.4% (inactive).

As to `COC(=O)C[C@H]1CC[C@@H](NC(=O)Nc2ccc(C(F)(F)F)cc2)[C@H](CO)O1`, the activity change, negative = cytotoxicity was -8.02% (inactive).

Regarding `CCc1ccc(/C=C2\SC(=S)N(CCC(=O)Nc3cc(C)on3)C2=O)cc1`, the activity change, negative = cytotoxicity is 9.95% (inactive).

With `COC(=O)C[C@@H]1CC[C@@H]2[C@H](COc3ccc(NC(=O)Nc4cccc(C#N)c4)cc3C(=O)N2C)O1`, the activity change, negative = cytotoxicity is 5.41% (inactive).

Consider `N/C(Cc1nc(-c2ccc(F)cc2)cs1)=N\O`, for which the activity change, negative = cytotoxicity was 11.6% (inactive).

For `Cc1ccc2c(c1)C(=O)N1[C@H]3c4cc(Br)ccc4OC[C@@H]3[C@H](c3ccccc3)[C@]1(C)C(=O)N2`, the activity change, negative = cytotoxicity is -5.71% (inactive).

Turning to `COc1ccc(Nc2oc(COc3ccccc3OC)nc2C#N)cc1`, the activity change, negative = cytotoxicity was 0.131% (inactive).

Consider `O=C1C(=O)N(CCS(=O)(=O)c2ccccc2)c2ccccc21`, for which the activity change, negative = cytotoxicity was 2.35% (inactive).

As to `Cc1ccc(N=C2NC(=O)/C(=C\c3cccs3)S2)cc1C`, the activity change, negative = cytotoxicity is -0.931% (inactive).

For `COc1cccc(S(=O)(=O)N(C)C[C@H]2OCc3cnnn3CCCC(=O)N([C@@H](C)CO)C[C@H]2C)c1`, the activity change, negative = cytotoxicity was -0.98% (inactive).

As to `COc1cc(/C=N/NC(=O)c2csc3c2CCCC3)cc(OC)c1O`, the activity change, negative = cytotoxicity is -7.47% (inactive).

`COc1ccc(NC(=O)c2cc3ccccc3oc2=O)cc1`: the activity change, negative = cytotoxicity was 7.98% (inactive).

For `COC(=O)C[C@@H]1CC[C@@H]2[C@H](COc3ccc(NC(=O)Nc4cccc(Cl)c4)cc3C(=O)N2C)O1`, the activity change, negative = cytotoxicity is -5.82% (inactive).

As to `O=C(O)c1ccc(N/N=C/c2c[nH]c3ccccc23)cc1`, the activity change, negative = cytotoxicity is 19.2% (inactive).

On to `C/C(=N\N(c1ccccc1)c1ccccc1)c1ccco1`, for which the activity change, negative = cytotoxicity was 12.8% (inactive).

Turning to `CCOc1ccc(/C=C2\CCc3ccccc3C2=O)cc1`, the activity change, negative = cytotoxicity is 4.42% (inactive).

For the compound `CCOc1ccc(C(c2c(NC(=O)c3ccccc3)sc(C)c2C)N2CCN(CCO)CC2)cc1` (centres undefined), the activity change, negative = cytotoxicity is 16.1% (inactive).

As to `O=C(CCCN1C(=O)/C(=C/c2ccccc2Cl)SC1=S)NNC(=O)c1ccc(Cl)cc1Cl`, the activity change, negative = cytotoxicity is -1.95% (inactive).

Regarding `Cc1csc(NC(=O)CCc2c(C)nc3cc(-c4ccc(Cl)cc4)nn3c2C)n1`, the activity change, negative = cytotoxicity was 10.8% (inactive).

As to `CC(C)CC(NC(=O)c1cccs1)c1nnc(SCc2ccc(Cl)c(Cl)c2)n1C` (centres undefined), the activity change, negative = cytotoxicity was -10% (inactive).

In the case of `CCc1ccc(/C=C2\SC(=S)N(CCCC(=O)NC3=NCCS3)C2=O)cc1`, the activity change, negative = cytotoxicity was 13.5% (inactive).

As for `C(=N\Nc1ccc2ccccc2n1)/c1ccc2c(c1)OCO2`, the activity change, negative = cytotoxicity is -9% (inactive).

Consider `CCN1CCN(/C=N/c2nc3c(s2)CCCC3)CC1`, for which the activity change, negative = cytotoxicity was -11.1% (inactive).

With `CCOC(=O)c1c(-c2ccc(C)cc2)csc1NC(=O)CCN1CCOCC1`, the activity change, negative = cytotoxicity was 13.3% (inactive).

For `O=C1Nc2cc(C(=O)NCCN3CCCCCC3)ccc2S/C1=C\c1ccccc1`, the activity change, negative = cytotoxicity was -2.13% (inactive).

Consider `COc1ccc(/C=C2\SC(=O)N(CCCC(=O)Nc3cc(Cl)ccc3C(=O)O)C2=O)cc1`, for which the activity change, negative = cytotoxicity is 5.69% (inactive).

`CCOc1cc(N2CCC(O)CC2)ccc1Nc1ncc2c(n1)N(C)c1ccccc1C(=O)N2C`: the activity change, negative = cytotoxicity is -28.3% (inactive).

Turning to `COCc1cc(C)nc2sc(C(=O)NCCO)c(-n3cccc3)c12`, the activity change, negative = cytotoxicity is 3.9% (inactive).

Turning to `Cc1ccccc1N=Nc1c(O)n(C)c2ccccc12`, the activity change, negative = cytotoxicity is 3.17% (inactive).

For the compound `CCCCN=C(NNc1ccc(Br)cc1)C(=O)OCC`, the activity change, negative = cytotoxicity was 4.46% (inactive).

As to `C(=C\c1ccc(C2[C@H]3CNC[C@@H]2N3Cc2ccccn2)cc1)/c1ccccc1` (some centres undefined), the activity change, negative = cytotoxicity was -7.86% (inactive).

Take `COc1cc(C(c2c(C)[nH][nH]c2=O)c2c(C)[nH][nH]c2=O)ccc1OC(C)C`: the activity change, negative = cytotoxicity was 3.29% (inactive).

For `Cc1ccc(Cl)cc1NC(=O)Cn1cc(C(F)(F)F)cc(Cl)c1=O`, the activity change, negative = cytotoxicity was 2.53% (inactive).

For the compound `CN(CCO)c1ccc(/C=N/Nc2nncc3ccccc23)cc1`, the activity change, negative = cytotoxicity was 0.119% (inactive).

As to `C[C@H]1CN([C@@H](C)CO)S(=O)(=O)c2ccc(C#Cc3ccncc3)cc2O[C@@H]1CN(C)S(=O)(=O)c1ccccc1`, the activity change, negative = cytotoxicity was -7.09% (inactive).

For the compound `Cc1ccc(C(C(=O)NCc2ccco2)N(C(=O)CNC(=O)c2cccs2)c2c(C)cc(C)cc2C)cc1` (centres undefined), the activity change, negative = cytotoxicity was -13.1% (inactive).

On to `CCOc1ccc(-c2cc(CCCC(=O)N3CCN(c4ccc(OC)cc4)CC3)no2)cc1`, for which the activity change, negative = cytotoxicity was -1.53% (inactive).

As for `O=C1NC(=O)N(CCc2ccc(F)cc2)C(=O)/C1=C/C=C/c1ccccc1`, the activity change, negative = cytotoxicity is 11.3% (inactive).

In the case of `COc1ccc(NC(=O)N(C)[C@H]2C[C@H]3c4[nH]c5ccccc5c4CCN3C(=O)[C@H]2CO)cc1`, the activity change, negative = cytotoxicity was 2.92% (inactive).

With `CCN(CC)c1ccc(C2NC(=O)c3ccccc3N2)cc1` (centres undefined), the activity change, negative = cytotoxicity was -26.2% (inactive).

As for `C[C@@H]1CN([C@@H](C)CO)C(=O)Cc2cc(NC(=O)Cn3cnnn3)ccc2O[C@@H]1CN(C)Cc1ccc(Oc2ccccc2)cc1`, the activity change, negative = cytotoxicity is 21.2% (inactive).

With `COc1ccc2oc(C(=O)NCCc3ccccc3)c(C)c2c1`, the activity change, negative = cytotoxicity is 3.92% (inactive).

Regarding `CCc1ccc(/C=C2\SC(=S)N(CCCC(=O)N3CCN(C)CC3)C2=O)cc1`, the activity change, negative = cytotoxicity is -30.1% (inactive).

Consider `N#C[C@H]1[C@H](c2ccc(C#Cc3ccccc3F)cc2)[C@@H](CO)N1C(=O)C1CCOCC1`, for which the activity change, negative = cytotoxicity is -12.8% (inactive).

As for `Cc1ccsc1/C=N/Nc1cccc(C(=O)O)c1`, the activity change, negative = cytotoxicity was -2.07% (inactive).

Consider `CN(C)C(=S)N=Nc1[nH]c2ccccc2c1O`, for which the activity change, negative = cytotoxicity is 16.9% (inactive).

Consider `OCCN1CCN(C(=S)c2ccc(-c3ccccc3)cc2)CC1`, for which the activity change, negative = cytotoxicity was -0.296% (inactive).

With `C/C=C/c1ccc(C2[C@@H]3CN(C(=O)Cc4ccccc4)C[C@H]2N3)cc1` (some centres undefined), the activity change, negative = cytotoxicity is 6.18% (inactive).

For the compound `Cc1c(N=Cc2cc(Br)cc(Br)c2O)cccc1C(=O)O`, the activity change, negative = cytotoxicity is 25.2% (inactive).

For `NC1=CC(=O)C(=O)c2cccnc21`, the activity change, negative = cytotoxicity is 1.93% (inactive).

For the compound `CC(C)(C)c1ccc(Oc2ccc(NC(=O)C3CC=CCC3C(=O)O)cc2)cc1` (centres undefined), the activity change, negative = cytotoxicity was -20.1% (inactive).

As to `CN(C)c1ccc(N=Nc2ccc(C(=O)O)cc2)cc1`, the activity change, negative = cytotoxicity was 9.97% (inactive).

As to `Nc1ccc(Oc2ccccc2-c2ccccc2)cc1`, the activity change, negative = cytotoxicity was 5.42% (inactive).

For `COc1ccc(CNc2ncc(-c3ccc(F)cc3)n2C)c2ccccc12`, the activity change, negative = cytotoxicity is -1.83% (inactive).

With `COc1ccc(C(=O)CN2C(=O)c3ccccc3S2(=O)=O)cc1`, the activity change, negative = cytotoxicity is 19.9% (inactive).

For the compound `C=CCOC(=O)c1sc(NC(=O)c2ccc(OC)cc2)nc1C`, the activity change, negative = cytotoxicity was -3.67% (inactive).

For `Cc1ccc(/C=C2\SC(=S)N(CCCC(=O)NNC(=O)c3ccccc3O)C2=O)cc1`, the activity change, negative = cytotoxicity is -5.43% (inactive).

Consider `COC(=O)Cc1[nH]n(-c2nc3ccccc3s2)c(=O)c1C(C)=Nc1ccc(C)cc1`, for which the activity change, negative = cytotoxicity is -7.01% (inactive).

On to `CC(C)(C)C(=O)Nc1ccc(N=Nc2ccccc2)cc1`, for which the activity change, negative = cytotoxicity is -0.79% (inactive).

Take `COC(=O)C[C@@H]1CC[C@@H]2[C@@H](COc3ccc(NC(=O)Nc4ccc(C#N)cc4)cc3C(=O)N2C)O1`: the activity change, negative = cytotoxicity is 15% (inactive).

In the case of `CCCn1nnc(NC(=S)NC(=O)C(C)(C)C)n1`, the activity change, negative = cytotoxicity was 17.3% (inactive).

`COC(=O)C[C@@H]1CC[C@H]2[C@H](COc3ccc(NC(=O)Nc4cc(C)cc(C)c4)cc3C(=O)N2C)O1`: the activity change, negative = cytotoxicity is 5.7% (inactive).

As for `CC(=O)c1ccc(N=Nc2ccc(C)cc2)cc1`, the activity change, negative = cytotoxicity was 13.2% (inactive).

On to `COC(=O)c1cccc(NC(=O)NC(=O)c2ccccc2Cl)c1`, for which the activity change, negative = cytotoxicity was 7.25% (inactive).
